Test results from patent EP3959993B1, “METHOD FOR SOLVENT FREE PRODUCTION OF AROMA CONCENTRATES” (Symrise AG, priority 2020, dated 2022).

Assays:
[1] = theoretical solubility, values known in the literature; cited from earlier work
[2] = Influence of the amount of NaCl on the distribution between oil phase and water phase (Example 5); format: physicochemical
[3] = Second oil phase obtained by adding NaCl to the water phase (Example 4); format: physicochemical; conditions: after separating oil phases I and II
Experimental: Cross linked polystyrene was used as adsorbent material. The volume flux for loading the adsorbent was 300 ml/min.
The adsorbent was heated to 150 °C, the temperature of the applied water steam was 160 °C.
The water steam flux was 10 g/min and was applied for 100 min.
The oil and water phases were separated.
A second oil phase was separated and was collected.

Row | Distribution in [%] between oil phase and water phase after condensation: Oil phase ([2]; NaCl 0%) | Distribution in [%] between oil phase and water phase after condensation: Water phase ([2]; NaCl 0%) | Distribution in [%] between oil phase and water phase after condensation: Oil phase ([2]; NaCl 27.8 %) | Distribution in [%] between oil phase and water phase after condensation: Water phase ([2]; NaCl 27.8 %) | Distribution in [%] between oil phase and water phase after condensation: Oil phase ([2]; NaCl 41.67%) | Distribution in [%] between oil phase and water phase after condensation: Water phase ([2]; NaCl 41.67%) | Distribution in [%] between oil phase and water phase after condensation: Oil phase ([2]; NaCl 55.56 %) | Distribution in [%] between oil phase and water phase after condensation: Water phase ([2]; NaCl 55.56 %) | Distribution in [%] between oil phase and water phase after condensation: Oil phase ([2]; NaCl 69.44 %) | Distribution in [%] between oil phase and water phase after condensation: Water phase ([2]; NaCl 69.44 %) | Distribution in [%] between oil phase and water phase after condensation: Oil phase ([2]; NaCl 83.33 %) | Distribution in [%] between oil phase and water phase after condensation: Water phase ([2]; NaCl 83.33 %) | Loss in the water phase [3] | Compound | Solubility in water (%) [1]
1 |  |  |  |  |  |  |  |  |  |  |  |  |  | [Cl-].[K+] [Potassium chloride] | 34.7%
2 |  |  |  |  |  |  |  |  |  |  |  |  |  | O=P([O-])([O-])OP(=O)([O-])OP(=O)([O-])[O-].[Na+].[Na+].[Na+].[Na+].[Na+] [Triphosphate (Na)] | 14.5%
3 | 37.9% | 62.1% | 73.6% | 26.4% | 82.6% | 17.4% | 88.4% | 11.6% | 91.7% | 8.3% | 94% | 6% | 6,0% | CCC/C=C/CO [trans-2-hexenol] | 
4 | 100% | 0% | 97.2% | 2.8% | 100% | 0% | 100% | 0% | 100% | 0% | 100% | 0% | 0,0% | CCC/C=C/COC(C)=O [trans-2-hexenyl acetate] | 
5 | 51.8% | 48.2% | 84% | 16% | 90.5% | 9.5% | 93.6% | 6.4% | 96.2% | 3.8% | 97.3% | 2.7% | 2,7% | CC/C=C/CCO [trans-3-hexenol] | 
